Laboratory results taken from patent EP1787679A1, “Use of compounds binding to the sigma receptor for the treatment of diabetes-associated pain” (LABORATORIOS DEL DR. ESTEVE, S.A., priority 2005, dated 2007).

Test system: STZ-induced mice
Experiment: von-Frey test, mechanical allodynia in streptozotocin (STZ)-induced diabetic mice
Type: in vivo
Settings: paw withdrawal response to von-Frey filaments
Source text: The pancreatic β-cell cytotoxic agent STZ is widely used to induce diabetes in rodents. The glucosamine-nitrosourea compound STZ is taken up into the insulin-producing β-cells of the islets of Langerhan's via the GLUT-2 glucose transporter. The cytotoxic effect of STZ is mediated through a decrease in NAD levels, and the formation of intracellular free radicals leading to various toxic effects, including DNA-strand breaks (Schnedl et al., 1994). […] STZ-induced diabetic rodents show common features of human diabetes that include damage to the eye, kidney, blood vessels, and nervous system. Diabetic neuropathic pain occurs mainly due to the damage in the nervous system (Sima and Sugimoto, 1999).
Method: In the present study, diabetes is induced in mice by a single i.v. injection of STZ (200 mg/kg) as reported previously (Kamei et al., 1991; Rashid and Ueda, 2002). […] The plasma glucose level in the mice is measured in blood samples obtained from tail vein. […]
Thermal hyperalgesia and mechanical allodynia is measured at different time points (1-21 days) after STZ injection. Mechanical allodynia is measured using von-Frey filaments, a well-established method known by those skilled in the art, where the paw withdrawal response is measured. Similarly, thermal hyperalgesia is measured as the latency to paw withdrawal evoked by exposing the right hind paw to a thermal stimulus. […]

CN1CCN(CCc2ccc(Cl)c(Cl)c2)CC1 [BD-1063, 1-(3,4-dichlorophenethyl)-4-methylpiperazine]
mechanical allodynia in the von-Frey test: significantly antagonizes mechanical allodynia
